Legend:
[1] = biological target: T1, glucocorticoid receptor (GR) (Homo sapiens, UniProt P04150); experiment: binding to the glucocorticoid receptor (recombinant receptor, cytosol of baculovirus-infected Sf9 cells)
T1 construct: made in house; host or cells: Sf9 insect cells infected with recombinant baculovirus; cytosol preparation
T1 sequence (P04150 1-777): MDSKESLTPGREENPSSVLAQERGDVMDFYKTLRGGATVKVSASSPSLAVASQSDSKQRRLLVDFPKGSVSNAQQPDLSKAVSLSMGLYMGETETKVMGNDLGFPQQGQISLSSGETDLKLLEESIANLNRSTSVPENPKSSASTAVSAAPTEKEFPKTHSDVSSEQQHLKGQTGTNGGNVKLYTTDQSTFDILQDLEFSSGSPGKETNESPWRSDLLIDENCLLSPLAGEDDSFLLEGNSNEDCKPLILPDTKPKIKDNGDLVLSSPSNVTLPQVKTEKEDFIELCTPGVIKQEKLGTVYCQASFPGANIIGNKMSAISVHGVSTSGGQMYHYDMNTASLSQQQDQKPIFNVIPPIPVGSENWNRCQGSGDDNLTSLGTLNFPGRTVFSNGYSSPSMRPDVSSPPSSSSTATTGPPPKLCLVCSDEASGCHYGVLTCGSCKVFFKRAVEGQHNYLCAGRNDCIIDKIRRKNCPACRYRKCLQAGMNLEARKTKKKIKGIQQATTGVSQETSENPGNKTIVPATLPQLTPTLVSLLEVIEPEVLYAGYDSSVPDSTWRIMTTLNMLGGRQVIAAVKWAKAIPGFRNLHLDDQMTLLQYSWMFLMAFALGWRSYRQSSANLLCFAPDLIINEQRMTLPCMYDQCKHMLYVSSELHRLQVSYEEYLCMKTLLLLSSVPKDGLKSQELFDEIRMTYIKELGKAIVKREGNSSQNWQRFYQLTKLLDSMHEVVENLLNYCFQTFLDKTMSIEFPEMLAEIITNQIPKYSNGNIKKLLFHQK
Description: The binding of the substances to the glucocorticoid receptor (GR) and other steroid hormone receptors (mineral corticoid receptor (MR), progesterone receptor (PR) and androgen receptor (AR)) is examined with the aid of recombinantly produced receptors. Cytosol preparations of Sf9 cells, which had been infected with recombinant baculoviruses, which code for the GR, are used for the binding studies.

[2] = tested on: cytokine IL-8 secretion, human monocyte cell line THP-1; experiment: inhibition of LPS-triggered IL-8 secretion in THP-1 cells (ELISA); assay type: cell-based; conditions: in comparison with dexamethasone as reference
Protocol: The concentration of the cytokines was determined in the supernatant by means of commercially available ELISA kits.

`COCC(O)(C(Nc1cc(F)cc2c1ccc(=O)n2-c1ccc(F)nc1)c1ccc(OC)c(F)c1Cl)C(F)(F)F` (centres unmarked) [Example 2, 5-{[1-(2-Chloro-3-fluoro-4-methoxyphenyl)-3,3,3-trifluoro-2-hydroxy-2-(methoxymethyl)propyl]amino}-7-fluoro-1-(6-fluoropyridin-3-yl)-1H quinolin-2-one] was tested, and the IC50 [1] was 6.3 nM and the “efficacy of IL-8 inhibition” value [2] was 107%.
